Test results reported in US6921775B2, “Methods for modulating brain damage” (Children's Medical Center Corporation, priority 2001, dated 2005).

Assays:
P7 rat pups = experiment: Hypoxia/ischemia (unilateral carotid ligation followed by hypoxia, 6% O2 for one hour) selective white matter injury model; assay type: in vivo
Source text: The methods used in this example are described in Follett et al. (2000) J. Neurosci. 20:9235-9241, incorporated by reference herein.
Because the white matter of premature infants at high risk for hypoxic/ischemic white matter injury is also populated with immature OLs (Kinney and Back, 1998), this age was chosen to deliver the hypoxic/ischemic insult. […] Injury was limited to the white matter without evidence of injury to cortical neurons. […] Ipsilateral injury included the loss of MBP expression in the OL processes extending into the cortex and decreased thickness of the periventricular white matter and external capsule in four of nine rats.
P7 rat pups underwent unilateral carotid ligation followed by hypoxia (6% O2 for one hour). Following hypoxia, littermates were treated with either topiramate (30 mg/kg, i.p., q12 h, 4 doses, n=12) or vehicle (n=12). 48 hours after hypoxia/ischemia, pups were evaluated with in situ end labeling (ISEL) for the presence of cell death in white matter. Briefly, coronal sections were labeled for the presence of single-stranded DNA fragments as a sensitive indicator of cell death. ISEL positive cells in white matter ipsilateral to the ligation in each of three coronal sections (at the level of the anterior hippocampus, mid-dorsal hippocampus, and posterior dorsal hippocampus) were counted and a mean was taken for each rat.
96 hours post-ischemia/hypoxia, pups were evaluated with ICC for loss of MBP expression ipsilateral to the ligation as compared to the contralateral side. Coronal sections were evaluated by immunocytochemistry with a monoclonal against MBP, and detected with fluorescent secondary antibody. Three sections were evaluated for each rat: the anterior hippocampus, the mid-dorsal hippocampus, and the posterior dorsal hippocampus. Lesion severity was assigned a value on a scale from 0 to 3 as follows: 0 if ipsilateral and colateral hemispheres were similar; 1 if ipsilateral loss was limited to cortical processes; 2, if loss of staining included thinning of the periventricular white matter; and 3 if white matter tracts included a full thickness loss of staining in the capsule. A mean severity score was obtained for immature and mature OL markers in each rat.
Litters of male Long Evans rat pups (Charles River Laboratories, Wilmington, Mass.) were raised with dams in a temperature-controlled environment with 12 hour light-dark cycles. Pups underwent carotid ligation and hypoxia at post-natal-day (P)7. They were recovered on a thermal blanket at 33-34° C. (baseline temperature for P7 rats) and returned to their dam for 48-96 hours prior to sacrifice. Treated pups were given intra-peritoneal (i.p.) injections of 0.1 cc solutions of topiramate, NBQX or vehicle every 12 hours for 48 hours at P7 and P8 for treatment, control and normal development studies.
Hypoxic/ischemic injury was generated in rats by unilateral carotid ligation followed by hypoxia (6% for 1 hour). […] The methods used in this example are described in Follett et al (2000) J. Neurosci. 20:9235-9241, incorporated by reference herein.
Briefly, rats were anesthetized with ether and the proximal internal carotid artery was isolated from the sympathetic chain and ligated. Animals requiring prolonged sedation due to technical issues were removed from the study. The animals were recovered one hour, then placed in a sealed chamber infused with nitrogen to a level of 6% O2, with body temperature maintained at 33-34° C. throughout. […] Pups were allowed a 1-2 hour period of recovery after hypoxia then returned to their dam. Pups were randomized into treatment and control groups by weight to insure no size variation existed between the subjects and controls to start. Following hypoxia animals in the treatment group were given i.p. injections of topirmate (10, 30 or 50 mg/kg in 0.1 cc PBS) or equivalent volume of saline repeat treatment every 12 hours for 48 hours. […]

OL precursor cells = experiment: Cell lineage progression (stage-specific markers A2B5, O4, O1, MBP) in OL precursor cultures; assay type: cell-based, rat; details: topiramate 30 μM, NBQX 100 μM; 0, 2, 6 and 10 days of maturation
Description: Primary oligodendrocyte precursor cells were isolated from mixed glial cultures of the forebrains of newborn Sprague-Dawley rats using a selective detachment procedure as described in detail elsewhere (McCarthy and de Vellis, 1980; Back et al., 1998), and further purified by differential adhesion (Back et al., 1998). Precursor cells were maintained in a chemically-defined medium (CDM) supplemented with recombinant human platelet derived growth factor-AA (PDGF, 10 ng/ml) and basic fibroblast growth factor (bFGF, 10 ng/ml). The CDM was Dulbecco Modified Eagle's Medium (DMEM) containing D-glucose (25 mM), L-glutamine (4 mM), sodium pyruvate (1 mM), human apo-transferrin (50 μg/ml), bovine pancreatic insulin (5 μg/ml), sodium selenium (30 nM), hydrocortisone (10 nM), D-biotin (10 nM), and bovine serum albumin (BSA, 1 mg/ml). All chemicals were from Sigma. […] Cell lineage progression was monitored by the sequential emergence of stage-specific immunochemical markers: A2B5, O4, O1, and MBP, as described previously (Back et al., 1998). […] The effect of these protocols on maturation was also assessed. Differentiation of the cultures in the absence or presence of topiramate (30 μM) or NBQX (100 μM) was monitored by cell morphology and the sequential emergence of a panel of OL stage-specific markers (A2B5, O4, O1, and MBP), following 0, 2, 6, and 10 days of maturation.

[1] = P7 rats, topiramate 30 mg/kg i.p. q12 h 4 doses, 96 hours

| Structure (SMILES) | white matter injury, semiquantitative lesion severity by MBP expression (P7 rat pups; P7 rats, NBQX post-treatment at termination of hypoxia, 96 hours after insult, vs vehicle-treated controls, p<0.001) | white matter injury, semiquantitative lesion severity by O1 expression (P7 rat pups; P7 rats, NBQX post-treatment at termination of hypoxia, 96 hours after insult, vs vehicle-treated controls, p<0.005) | treated pups with no detectable injury (P7 rat pups; P7 rats, NBQX post-treatment, 96 hours after insult) | rectal temperature, treated vs untreated groups (P7 rat pups; P7 rats, NBQX treatment initiated after hypoxia) | progression along the OL lineage (morphology, A2B5, O4, O1, MBP) (OL precursor cells) | protective effect at the lower dose (MBP injury) (P7 rat pups; Example 3, 10 mg/kg per dose (40 mg/kg divided over 48 hours)) | lesion severity, blinded semi-quantitative analysis of MBP expression (P7 rat pups; Example 3, 30 mg/kg topiramate every 12 hours for 48 hours, 96 hours after hypoxia, vs vehicle p<0.01) | effect at the higher dose (MBP injury) (P7 rat pups; Example 3, 50 mg/kg per dose (200 mg/kg divided over 48 hours)) | body temperature by rectal probe, treatment vs control groups (P7 rat pups; Example 3, P7 rats, monitored at each stage) | dose with maximal protective effect (MBP injury) (P7 rat pups; Example 3, partial dose response 10, 30, 50 mg/kg every 12 hours for 48 hours) [mg/kg/dose] | pups with less than 20 ISEL positive cells per section in subcortical white matter ipsilateral to the ligation (P7 rat pups; P7 rats, topiramate 30 mg/kg i.p. q12 h 4 doses, 48 hours after hypoxia/ischemia) | white matter cell death (ISEL positive cells) (P7 rat pups; P7 rats, topiramate 30 mg/kg i.p. q12 h 4 doses, 48 hours after hypoxia/ischemia, p<0.03) | pups with no appreciable loss of MBP expression ipsilateral to the carotid ligation (P7 rat pups; [1]) | pups with severe injury (MBP loss) (P7 rat pups; [1]) | loss of MBP expression ipsilateral to the ligation (P7 rat pups; P7 rats, topiramate 30 mg/kg i.p. q12 h 4 doses, 96 hours post-ischemia/hypoxia, p=0.04) |
| --- | --- | --- | --- | --- | --- | --- | --- | --- | --- | --- | --- | --- | --- | --- | --- |
| NS(=O)(=O)c1cccc2c1c([N+](=O)[O-])cc1nc(O)c(O)nc12 [NBQX, 2,3-Dioxo-6-nitro-1,2,3,4-tetrahydrobenzo[f]quinoxaline-7-sulphonamide] | significant attenuation of white matter injury | significant attenuation of white matter injury | three of seven | No difference in rectal temperatures | indistinguishable from the progression of the control cultures |  |  |  |  |  |  |  |  |  |  |
| CC1(C)O[C@@H]2[C@@H](CO[C@@]3(COS(N)(=O)=O)OC(C)(C)O[C@@H]23)O1 [topiramate] |  |  |  |  | indistinguishable from the progression of the control cultures | less efficacy | significant attenuation of lesion severity | question of possible toxicity | did not differ between treatment and control groups | 30 | Five out of six | significant decreases in white matter cell death | two out of five | None of the topiramate treated pups exhibited severe injury | significant attenuation of MBP loss |
